Laboratory results: BigSolDB 2.1

O=C(NC[C@H]1CN(c2ccc(N3CCOCC3=O)cc2)C(=O)O1)c1ccc(Cl)s1
solubility (mole fraction)
Settings | in 1,4-dioxane | in 2-butanone | in 2-hexanone | in 3-pentanone | in acetone | in acetonitrile | in methyl acetate
273.15 K | – | 3.47e-05 | 1.78e-05 | 2.43e-05 | 4.06e-05 | 4.82e-05 | 3.2e-05
278.15 K | – | 4.55e-05 | 2.24e-05 | 3.11e-05 | 5.29e-05 | 6.11e-05 | 4.05e-05
283.15 K | – | 5.9e-05 | 2.79e-05 | 3.94e-05 | 6.83e-05 | 7.68e-05 | 5.07e-05
288.15 K | 0.000132 | 7.59e-05 | 3.45e-05 | 4.95e-05 | 8.74e-05 | 9.58e-05 | 6.31e-05
293.15 K | 0.000158 | 9.67e-05 | 4.24e-05 | 6.17e-05 | 0.000111 | 0.000119 | 7.79e-05
298.15 K | 0.000189 | 0.000122 | 5.17e-05 | 7.64e-05 | 0.00014 | 0.000146 | 9.54e-05
303.15 K | 0.000224 | 0.000153 | 6.27e-05 | 9.39e-05 | 0.000175 | 0.000178 | 0.000116
308.15 K | 0.000265 | 0.000191 | 7.54e-05 | 0.000115 | 0.000216 | 0.000216 | 0.000141
313.15 K | 0.000311 | 0.000236 | 9.03e-05 | 0.000139 | 0.000267 | 0.00026 | 0.000169
318.15 K | 0.000363 | 0.00029 | 0.000107 | 0.000168 | 0.000326 | 0.000312 | 0.000202
323.15 K | 0.000422 | – | – | – | – | – | –
328.15 K | 0.000488 | – | – | – | – | – | –
333.15 K | 0.000562 | – | – | – | – | – | –
